From patent US7118895B2, “Process for producing aglycon by using diglycosidase and flavor-improved food containing the aglycon and converting agent to be used in the process” (Amano Enzyme Inc., priority 2000, dated 2006)

Test system: Crude diglycosidase
Assay: Examination of pH in the conversion into isoflavone aglycons by diglycosidase using soybean materials
Type: biochemical, Penicillium multicolor IAM7153
Design: Decomposition efficiency of genistin family in soymilk / Decomposition efficiency of genistin family in defatted soybean / Decomposition efficiency of daidzin family in defatted soybean: concentration or dose not given beside the values
Settings: for Decomposition efficiency of genistin family in roasted soy flour: 55° C.
Method: A substrate solution of 450 μL was prepared by suspending 50 mg of each soybean material (roasted soy flour (manufactured by Fuji Shokuryo K.K.), soymilk (manufactured by Gitoh Shokuhin K.K.), defatted soybean (manufactured by Fuji Seiyu K.K.), concentrated soybean protein (manufactured by Fuji Seiyu K.K.)), and adjusting the pH to 2 to 11 with hydrochloric acid or sodium hydroxide. Each enzyme solution of pH 2–11 wherein diglycosidase activity of crude diglycosidase was adjusted to 1.88 AU/mL was added thereto in an amount of 50 μL and the whole was reacted at 55° C. at the total volume of 500 μL. To the reaction mixture was added 700 μL of ethanol after 0, 1, 3, and 6 hours of the reaction. After stirring and ultrasonication, the mixture was subjected to centrifugal separation at 15,000 rpm and 4° C. for 10 minutes. The supernatant was filtered through a filter and the existence of isoflavone glycosides and aglycon isoflavones contained in the reaction mixture was detected by HLPC (Tables 15 to 26).

[1] = pH4.8, heat treatment of enzyme: no, reaction time 0 h
[2] = pH4.8, heat treatment of enzyme: no, reaction time 1 h
[3] = pH4.8, heat treatment of enzyme: no, reaction time 3 h
[4] = pH4.8, heat treatment of enzyme: no, reaction time 6 h
[5] = pH4.8, heat treatment of enzyme: yes, reaction time 6 h
[6] = pH6.6, heat treatment of enzyme: no, reaction time 0 h
[7] = pH6.6, heat treatment of enzyme: no, reaction time 1 h
[8] = pH6.6, heat treatment of enzyme: no, reaction time 3 h
[9] = pH6.6, heat treatment of enzyme: no, reaction time 6 h
[10] = pH6.6, heat treatment of enzyme: yes, reaction time 6 h

Decomposition efficiency of genistin family in concentrated soybean protein (pH1.6, heat treatment of enzyme: no, reaction time 0 h): 42.5%
Decomposition efficiency of genistin family in concentrated soybean protein (pH1.6, heat treatment of enzyme: no, reaction time 1 h): 42.2%
Decomposition efficiency of genistin family in concentrated soybean protein (pH1.6, heat treatment of enzyme: no, reaction time 3 h): 40.6%
Decomposition efficiency of genistin family in concentrated soybean protein (pH1.6, heat treatment of enzyme: no, reaction time 6 h): 38.9%
Decomposition efficiency of genistin family in concentrated soybean protein (pH1.6, heat treatment of enzyme: yes, reaction time 6 h): 37.7%
Decomposition efficiency of genistin family in roasted soy flour (pH2, heat treatment of enzyme no, reaction time 0 h): 45.2
Decomposition efficiency of genistin family in roasted soy flour (pH2, heat treatment of enzyme no, reaction time 1 h): 45.0
Decomposition efficiency of genistin family in roasted soy flour (pH2, heat treatment of enzyme no, reaction time 3 h): 43.1
Decomposition efficiency of genistin family in roasted soy flour (pH2, heat treatment of enzyme no, reaction time 6 h): 40.7
Decomposition efficiency of genistin family in roasted soy flour (pH2, heat treatment of enzyme yes, reaction time 6 h): 41.2
Decomposition efficiency of genistin family in soymilk (pH2.3, heat treatment of enzyme: no, reaction time 0 h): 0.6%
Decomposition efficiency of genistin family in soymilk (pH2.3, heat treatment of enzyme: no, reaction time 1 h): 0.7%
Decomposition efficiency of genistin family in soymilk (pH2.3, heat treatment of enzyme: no, reaction time 3 h): 0.8%
Decomposition efficiency of genistin family in soymilk (pH2.3, heat treatment of enzyme: no, reaction time 6 h): 0.6%
Decomposition efficiency of genistin family in soymilk (pH2.3, heat treatment of enzyme: yes, reaction time 6 h): 0.6%
Decomposition efficiency of genistin family in defatted soybean (pH2.6, heat treatment of enzyme: no, reaction time 0 h): 1.8%
Decomposition efficiency of genistin family in defatted soybean (pH2.6, heat treatment of enzyme: no, reaction time 1 h): 1.7%
Decomposition efficiency of genistin family in defatted soybean (pH2.6, heat treatment of enzyme: no, reaction time 3 h): 1.7%
Decomposition efficiency of genistin family in defatted soybean (pH2.6, heat treatment of enzyme: no, reaction time 6 h): 1.9%
Decomposition efficiency of genistin family in defatted soybean (pH2.6, heat treatment of enzyme: yes, reaction time 6 h): 1.6%
Decomposition efficiency of genistin family in concentrated soybean protein (pH2.7, heat treatment of enzyme: no, reaction time 0 h): 42.5%
Decomposition efficiency of genistin family in concentrated soybean protein (pH2.7, heat treatment of enzyme: no, reaction time 1 h): 44.3%
Decomposition efficiency of genistin family in concentrated soybean protein (pH2.7, heat treatment of enzyme: no, reaction time 3 h): 43.7%
Decomposition efficiency of genistin family in concentrated soybean protein (pH2.7, heat treatment of enzyme: no, reaction time 6 h): 44.0%
Decomposition efficiency of genistin family in concentrated soybean protein (pH2.7, heat treatment of enzyme: yes, reaction time 6 h): 42.5%
Decomposition efficiency of genistin family in roasted soy flour (pH3, heat treatment of enzyme no, reaction time 0 h): 45.2
Decomposition efficiency of genistin family in roasted soy flour (pH3, heat treatment of enzyme no, reaction time 1 h): 45.2
Decomposition efficiency of genistin family in roasted soy flour (pH3, heat treatment of enzyme no, reaction time 3 h): 41.9
Decomposition efficiency of genistin family in roasted soy flour (pH3, heat treatment of enzyme no, reaction time 6 h): 43.5
Decomposition efficiency of genistin family in roasted soy flour (pH3, heat treatment of enzyme yes, reaction time 6 h): 45.1
Decomposition efficiency of genistin family in defatted soybean (pH3.4, heat treatment of enzyme: no, reaction time 0 h): 1.8%
Decomposition efficiency of genistin family in defatted soybean (pH3.4, heat treatment of enzyme: no, reaction time 1 h): 1.5%
Decomposition efficiency of genistin family in defatted soybean (pH3.4, heat treatment of enzyme: no, reaction time 3 h): 1.1%
Decomposition efficiency of genistin family in defatted soybean (pH3.4, heat treatment of enzyme: no, reaction time 6 h): 0.8%
Decomposition efficiency of genistin family in defatted soybean (pH3.4, heat treatment of enzyme: yes, reaction time 6 h): 1.8%
Decomposition efficiency of genistin family in soymilk (pH3.5, heat treatment of enzyme: no, reaction time 0 h): 0.6%
Decomposition efficiency of genistin family in soymilk (pH3.5, heat treatment of enzyme: no, reaction time 1 h): not detected
Decomposition efficiency of genistin family in soymilk (pH3.5, heat treatment of enzyme: no, reaction time 3 h): not detected
Decomposition efficiency of genistin family in soymilk (pH3.5, heat treatment of enzyme: no, reaction time 6 h): not detected
Decomposition efficiency of genistin family in soymilk (pH3.5, heat treatment of enzyme: yes, reaction time 6 h): 0.5%
Decomposition efficiency of genistin family in concentrated soybean protein (pH3.7, heat treatment of enzyme: no, reaction time 0 h): 43.1%
Decomposition efficiency of genistin family in concentrated soybean protein (pH3.7, heat treatment of enzyme: no, reaction time 1 h): 43.5%
Decomposition efficiency of genistin family in concentrated soybean protein (pH3.7, heat treatment of enzyme: no, reaction time 3 h): 36.9%
Decomposition efficiency of genistin family in concentrated soybean protein (pH3.7, heat treatment of enzyme: no, reaction time 6 h): 30.7%
Decomposition efficiency of genistin family in concentrated soybean protein (pH3.7, heat treatment of enzyme: yes, reaction time 6 h): 43.0%
Decomposition efficiency of genistin family in roasted soy flour (pH4, heat treatment of enzyme no, reaction time 0 h): 45.4
Decomposition efficiency of genistin family in roasted soy flour (pH4, heat treatment of enzyme no, reaction time 1 h): 36.3
Decomposition efficiency of genistin family in roasted soy flour (pH4, heat treatment of enzyme no, reaction time 3 h): 23.4
Decomposition efficiency of genistin family in roasted soy flour (pH4, heat treatment of enzyme no, reaction time 6 h): 13.4
Decomposition efficiency of genistin family in roasted soy flour (pH4, heat treatment of enzyme yes, reaction time 6 h): 45.4
Decomposition efficiency of genistin family in defatted soybean [1]: 1.8%
Decomposition efficiency of genistin family in soymilk [1]: 0.5%
Decomposition efficiency of genistin family in defatted soybean [2]: 1.0%
Decomposition efficiency of genistin family in soymilk [2]: not detected
Decomposition efficiency of genistin family in defatted soybean [3]: 0.6%
Decomposition efficiency of genistin family in soymilk [3]: not detected
Decomposition efficiency of genistin family in defatted soybean [4]: 0.4%
Decomposition efficiency of genistin family in soymilk [4]: not detected
Decomposition efficiency of genistin family in defatted soybean [5]: 1.3%
Decomposition efficiency of genistin family in soymilk [5]: 0.6%
Decomposition efficiency of genistin family in roasted soy flour (pH5, heat treatment of enzyme no, reaction time 0 h): 45.4
Decomposition efficiency of genistin family in roasted soy flour (pH5, heat treatment of enzyme no, reaction time 1 h): 39.9
Decomposition efficiency of genistin family in roasted soy flour (pH5, heat treatment of enzyme no, reaction time 3 h): 26.9
Decomposition efficiency of genistin family in roasted soy flour (pH5, heat treatment of enzyme no, reaction time 6 h): 17.6
Decomposition efficiency of genistin family in roasted soy flour (pH5, heat treatment of enzyme yes, reaction time 6 h): 42.0
Decomposition efficiency of genistin family in concentrated soybean protein (pH5.1, heat treatment of enzyme: no, reaction time 0 h): 43.1%
Decomposition efficiency of genistin family in concentrated soybean protein (pH5.1, heat treatment of enzyme: no, reaction time 1 h): 45.2%
Decomposition efficiency of genistin family in concentrated soybean protein (pH5.1, heat treatment of enzyme: no, reaction time 3 h): 40.2%
Decomposition efficiency of genistin family in concentrated soybean protein (pH5.1, heat treatment of enzyme: no, reaction time 6 h): 35.6%
Decomposition efficiency of genistin family in concentrated soybean protein (pH5.1, heat treatment of enzyme: yes, reaction time 6 h): 42.4%
Decomposition efficiency of genistin family in defatted soybean (pH5.4, heat treatment of enzyme: no, reaction time 0 h): 1.8%
Decomposition efficiency of genistin family in defatted soybean (pH5.4, heat treatment of enzyme: no, reaction time 1 h): 0.5%
Decomposition efficiency of genistin family in defatted soybean (pH5.4, heat treatment of enzyme: no, reaction time 3 h): not detected
Decomposition efficiency of genistin family in defatted soybean (pH5.4, heat treatment of enzyme: no, reaction time 6 h): not detected
Decomposition efficiency of genistin family in defatted soybean (pH5.4, heat treatment of enzyme: yes, reaction time 6 h): not detected
Decomposition efficiency of genistin family in soymilk (pH6.2, heat treatment of enzyme: no, reaction time 0 h): 0.5%
Decomposition efficiency of genistin family in soymilk (pH6.2, heat treatment of enzyme: no, reaction time 1 h): not detected
Decomposition efficiency of genistin family in soymilk (pH6.2, heat treatment of enzyme: no, reaction time 3 h): not detected
Decomposition efficiency of genistin family in soymilk (pH6.2, heat treatment of enzyme: no, reaction time 6 h): not detected
Decomposition efficiency of genistin family in soymilk (pH6.2, heat treatment of enzyme: yes, reaction time 6 h): 0.6%
Decomposition efficiency of genistin family in roasted soy flour (pH6.5, heat treatment of enzyme no, reaction time 0 h): 45.8
Decomposition efficiency of genistin family in roasted soy flour (pH6.5, heat treatment of enzyme no, reaction time 1 h): 45.3
Decomposition efficiency of genistin family in roasted soy flour (pH6.5, heat treatment of enzyme no, reaction time 3 h): 38.8
Decomposition efficiency of genistin family in roasted soy flour (pH6.5, heat treatment of enzyme no, reaction time 6 h): 34.0
Decomposition efficiency of genistin family in roasted soy flour (pH6.5, heat treatment of enzyme yes, reaction time 6 h): 39.2
Decomposition efficiency of genistin family in concentrated soybean protein [6]: 43.0%
Decomposition efficiency of genistin family in defatted soybean [6]: 1.7%
Decomposition efficiency of genistin family in concentrated soybean protein [7]: 43.6%
Decomposition efficiency of genistin family in defatted soybean [7]: 0.6%
Decomposition efficiency of genistin family in concentrated soybean protein [8]: 42.8%
Decomposition efficiency of genistin family in defatted soybean [8]: 0.3%
Decomposition efficiency of genistin family in concentrated soybean protein [9]: 41.0%
Decomposition efficiency of genistin family in defatted soybean [9]: 0.2%
Decomposition efficiency of genistin family in concentrated soybean protein [10]: 40.6%
Decomposition efficiency of genistin family in defatted soybean [10]: 0.2%
Decomposition efficiency of genistin family in soymilk (pH7.2, heat treatment of enzyme: no, reaction time 0 h): 0.7%
Decomposition efficiency of genistin family in soymilk (pH7.2, heat treatment of enzyme: no, reaction time 1 h): not detected
Decomposition efficiency of genistin family in soymilk (pH7.2, heat treatment of enzyme: no, reaction time 3 h): not detected
Decomposition efficiency of genistin family in soymilk (pH7.2, heat treatment of enzyme: no, reaction time 6 h): not detected
Decomposition efficiency of genistin family in soymilk (pH7.2, heat treatment of enzyme: yes, reaction time 6 h): 0.7%
Decomposition efficiency of genistin family in defatted soybean (pH7.8, heat treatment of enzyme: no, reaction time 0 h): 1.6%
Decomposition efficiency of genistin family in defatted soybean (pH7.8, heat treatment of enzyme: no, reaction time 1 h): 1.0%
Decomposition efficiency of genistin family in defatted soybean (pH7.8, heat treatment of enzyme: no, reaction time 3 h): 0.8%
Decomposition efficiency of genistin family in defatted soybean (pH7.8, heat treatment of enzyme: no, reaction time 6 h): 0.7%
Decomposition efficiency of genistin family in defatted soybean (pH7.8, heat treatment of enzyme: yes, reaction time 6 h): 0.6%
Decomposition efficiency of genistin family in roasted soy flour (pH8.5, heat treatment of enzyme no, reaction time 0 h): 39.5
Decomposition efficiency of genistin family in roasted soy flour (pH8.5, heat treatment of enzyme no, reaction time 1 h): 39.5
Decomposition efficiency of genistin family in roasted soy flour (pH8.5, heat treatment of enzyme no, reaction time 3 h): 39.2
Decomposition efficiency of genistin family in roasted soy flour (pH8.5, heat treatment of enzyme no, reaction time 6 h): 37.3
Decomposition efficiency of genistin family in roasted soy flour (pH8.5, heat treatment of enzyme yes, reaction time 6 h): 35.2
Decomposition efficiency of genistin family in concentrated soybean protein (pH8.6, heat treatment of enzyme: no, reaction time 0 h): 39.7%
Decomposition efficiency of genistin family in concentrated soybean protein (pH8.6, heat treatment of enzyme: no, reaction time 1 h): 38.8%
Decomposition efficiency of genistin family in concentrated soybean protein (pH8.6, heat treatment of enzyme: no, reaction time 3 h): 39.0%
Decomposition efficiency of genistin family in concentrated soybean protein (pH8.6, heat treatment of enzyme: no, reaction time 6 h): 38.5%
Decomposition efficiency of genistin family in concentrated soybean protein (pH8.6, heat treatment of enzyme: yes, reaction time 6 h): 37.6%
Decomposition efficiency of genistin family in soymilk (pH11.6, heat treatment of enzyme: no, reaction time 0 h): 0.5%
Decomposition efficiency of genistin family in soymilk (pH11.6, heat treatment of enzyme: no, reaction time 1 h): not detected
Decomposition efficiency of genistin family in soymilk (pH11.6, heat treatment of enzyme: no, reaction time 3 h): not detected
Decomposition efficiency of genistin family in soymilk (pH11.6, heat treatment of enzyme: no, reaction time 6 h): not detected
Decomposition efficiency of genistin family in soymilk (pH11.6, heat treatment of enzyme: yes, reaction time 6 h): 0.9%
SMILES: CC(=O)OC[C@H]1O[C@@H](Oc2cc(O)c3c(=O)c(-c4ccc(O)cc4)coc3c2)[C@H](O)[C@@H](O)[C@@H]1O [acetylgenistin, 6″-O-acetylgenistin]
